Reference: patent US10774110B2, “Rapadocins, inhibitors of equilibrative nucleoside transporter 1 and uses thereof” (The Johns Hopkins University, priority 2016, dated 2020)
Read-outs that look alike come from different tables or passages of the source.

Columns and labels:
[1] = molecular target: T1, ENT1 (Homo sapiens, UniProt P62942+Q99808); experiment: 3H-Thymidine uptake, potency of Rapadocin analogs (Table 2); type: cell-based; set-up: endogenous in cells
Text: (§1) Rapadocin is a synthetic macrocycle composed of two ‘domains’—a FKBD (FKBP12 binding domain) and a peptide domain. […] The peptidic fragment can tolerate a range of modifications with varying effects on ENT1 inhibition.
Table 2 discloses the potency of various Rapadocin analogs.
Target sequence in this assay (Q99808 2-456 limits assumed): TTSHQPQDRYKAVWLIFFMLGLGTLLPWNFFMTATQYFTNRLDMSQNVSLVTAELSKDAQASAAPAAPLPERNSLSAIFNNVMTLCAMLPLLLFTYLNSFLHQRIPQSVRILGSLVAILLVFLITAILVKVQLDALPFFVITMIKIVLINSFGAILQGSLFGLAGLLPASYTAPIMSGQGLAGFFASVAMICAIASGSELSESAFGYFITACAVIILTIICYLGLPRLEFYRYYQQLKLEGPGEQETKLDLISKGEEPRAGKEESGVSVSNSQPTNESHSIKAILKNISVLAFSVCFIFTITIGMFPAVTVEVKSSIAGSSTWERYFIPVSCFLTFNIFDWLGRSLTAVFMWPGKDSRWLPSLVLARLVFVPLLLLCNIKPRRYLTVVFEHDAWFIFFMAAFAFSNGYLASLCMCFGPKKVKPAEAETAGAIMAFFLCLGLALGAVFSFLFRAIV
Target sequence in this assay (P62942 2-108 limits assumed): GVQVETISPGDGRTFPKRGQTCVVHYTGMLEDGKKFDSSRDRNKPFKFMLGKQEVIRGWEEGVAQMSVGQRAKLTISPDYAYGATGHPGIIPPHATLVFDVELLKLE

[2] = tested on: MCF-7; experiment: 3H-Thymidine uptake in MCF-7; type: cell-based, human
Text: (§2) uptake in at least seven cell lines and is predicted to inhibit nucleoside uptake in all human cell lines (see e.g., FIG. 2 and Table 1).

[3] = tested on: MDA MB-231; experiment: 3H-Thymidine uptake in MDA MB-231; type: cell-based, human
Text: as §2

[4] = molecular target: T2, FKBP12 (Homo sapiens, UniProt P62942); experiment: Antagonism of uptake inhibition by FKBP12-binders; type: cell-based; conditions: FIG. 3
T2 construct: endogenous in cells
Text: FIG. 3. Rapadocin's uptake inhibition is antagonized by FKBP12-binders Rapamycin and FK506.

[5] = tested on: HUVEC; experiment: 3H-Thymidine uptake in HUVEC; type: cell-based, human
Text: FIG. 2. Rapadocin inhibits ^3H-Thymidine uptake in Human Umbilical Vein Endothelial Cells (HUVEC).
as §2

[6] = molecular target: T1, ENT1; experiment: 3H-Adenosine / nucleoside uptake by hENT1 (vs hENT2); type: cell-based
Text: FIG. 1. Rapadocin inhibits ^3H-Adenosine uptake by specifically inhibiting hENT1.
Rapadocin inhibits nucleoside
Target sequence in this assay (Q99808 whole entry, the tested form may be a part): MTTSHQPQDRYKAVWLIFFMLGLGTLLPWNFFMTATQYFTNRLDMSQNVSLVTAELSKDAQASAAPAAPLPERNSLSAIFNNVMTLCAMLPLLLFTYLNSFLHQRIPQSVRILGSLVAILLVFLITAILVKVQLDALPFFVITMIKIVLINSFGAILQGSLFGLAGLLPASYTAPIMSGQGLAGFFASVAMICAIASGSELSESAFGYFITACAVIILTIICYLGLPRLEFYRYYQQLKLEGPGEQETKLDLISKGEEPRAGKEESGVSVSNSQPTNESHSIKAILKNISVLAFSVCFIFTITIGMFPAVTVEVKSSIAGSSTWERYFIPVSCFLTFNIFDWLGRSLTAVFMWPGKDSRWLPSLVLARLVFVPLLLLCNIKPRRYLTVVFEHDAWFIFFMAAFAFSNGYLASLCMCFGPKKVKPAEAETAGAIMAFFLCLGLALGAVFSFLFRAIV
Target sequence in this assay (P62942 2-108 limits assumed): as the sequence (P62942 2-108 limits assumed) above

[7] = tested on: kidney ischemia reperfusion injury; experiment: Kidney ischemia reperfusion injury mouse model; type: in vivo
Text: as §1
(§3) Two human and animal models have been studied to show the efficacy of Rapadocin (FIGS. 4 and 5). Under several physiological conditions, adenosine is released into the blood where it can act on adenosine receptors. Normally, this adenosine (ADO) is rapidly reabsorbed via ENT1. In the presence of Rapadocin, uptake is inhibited and ADO is able to produce enhanced signaling leading to several potentially beneficial physiological responses.

[8] = tested on: RKO; experiment: 3H-Thymidine uptake in RKO; type: cell-based, human
Text: as §2

[9] = tested on: 293T; experiment: 3H-Thymidine uptake in 293T; type: cell-based, human
Text: as §2

[10] = tested on: HeLa; experiment: 3H-Thymidine uptake in HeLa; type: cell-based, human
Text: as §2

[11] = tested on: platelet aggregation in human blood; experiment: Platelet aggregation in human blood activated by ADP; type: cell-based; conditions: FIG. 4
Text: as §3

[12] = Stability in cell culture media; type: physicochemical; conditions: 5 days, 37° C., 10% Fetal Bovine Serum
[13] = tested on: A549; experiment: 3H-Thymidine uptake in A549; type: cell-based, human
Text: as §2

[14] = Solubility in aqueous solutions; type: physicochemical

T2 sequence (P62942 whole entry): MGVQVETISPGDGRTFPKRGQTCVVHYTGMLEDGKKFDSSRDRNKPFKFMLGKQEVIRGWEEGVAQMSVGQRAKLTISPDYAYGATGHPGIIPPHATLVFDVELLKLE

SMILES: c1ccc2sccc2c1 [Analog 95-15-8]
- EC50 ([1]; cells printed with uM, read-out: EC50 3H-Tymidine uptake): > 1 µM

SMILES: COc1ccc(CC[C@H]2OC(=O)[C@@H]3CCCCN3C(=O)C(=O)C(C)(C)COC(=O)C=CCCN(C)C(=O)[C@H](CC(C)C)N(C)C(=O)[C@@H]3CCCN3C(=O)[C@H](Cc3ccc(OCC(=O)NCCOCCOCCNC(=O)CCCCC4SCC5NC(=O)NC54)cc3)NC(=O)[C@H](c3ccccc3)NC(=O)CCC(=O)Nc3cccc2c3)cc1OC (some centres unmarked) [JW95TyrBiotin]
- EC50 [1]: 0.064 µM

SMILES: C#CCCC1(CCOc2ccc(C[C@@H]3NC(=O)[C@H](c4ccccc4)NC(=O)CCC(=O)Nc4cccc(c4)[C@@H](CCc4ccc(OC)c(OC)c4)OC(=O)C4CCCCN4C(=O)C(=O)C(C)(C)COC(=O)C=CCCN(C)C(=O)[C@H](CC(C)C)N(C)C(=O)[C@@H]4CCCN4C3=O)cc2)N=N1 (some centres unmarked) [JW95TyrDiaz]
- EC50 [1]: 0.02 µM

SMILES: COc1ccc(CC[C@H]2OC(=O)[C@@H]3CCCCN3C(=O)C(=O)C(C)(C)COC(=O)/C=C/CCN(C)C(=O)[C@H](CC(C)C)N(C)C(=O)[C@H]3CCCN3C(=O)[C@H](Cc3ccccc3)N(C)C(=O)[C@H](c3ccccc3)NC(=O)CCC(=O)Nc3cccc2c3)cc1OC [Rapadocin]
- EC50 [2]: 9 nM
- EC50 [1]: 0.00616 µM
- EC50 [3]: 41.1 nM
- uptake inhibition in presence of FKBP12-binders Rapamycin and FK506 [4]: antagonized
- EC50 [5]: 6.4 nM
- 3H-Thymidine uptake inhibition ([5]; FIG. 2): inhibits
- 3H-Adenosine uptake inhibition ([6]; FIG. 1, by specifically inhibiting hENT1): inhibits
- inhibition of nucleoside uptake by hENT1 over hENT2 ([6]; selectivity hENT1 over hENT2, FIG. 1): potently and specifically inhibits
- tolerability in animals ([7]; kidney ischemia model): safely tolerated
- protection against kidney ischemia reperfusion injury ([7]; mouse model, FIG. 5): protects against kidney ischemia reperfusion injury
- EC50 [8]: 11.4 nM
- EC50 [9]: 5 nM
- EC50 [10]: 16.3 nM
- platelet aggregation [11]: inhibits platelet aggregation
- resistance to degradation [12]: resist degradation over 5 days
- EC50 [13]: 6.3 nM
- solubility [14]: ≤ 10 µM
